Results published in patent publication US10772847B1, “Combinational fendiline formulations and uses thereof” (UNIVERSITY OF SOUTH FLORIDA, priority 2016, dated 2020).

Key:
P-Aurora ABC = assay: Fluorescent microscopy of p-Aurora ABC in CD18 cells; type: cell-based; settings: about 24 hours of treatment, FIGS. 26A-26C
Description: FIGS. 26A-26C show fluorescent microscopic images of CD18 cells treated with fendiline or Tivantinib as compared to untreated after about 24 hours of treatment and staining with antibodies against p-Aurora ABC or a-tubulin and counterstained with Hoechst.

cancer cells = settings: shown earlier (introduction); cited from earlier work
ADAM10 = settings: shown recently (introduction); cited from earlier work

CC(NCCC(c1ccccc1)c1ccccc1)c1ccccc1 (stereo not drawn) [fendiline]
aurora ABC phosphorylation (P-Aurora ABC): inhibit | cytotoxicity in cancer cells (cancer cells): induces cytotoxicity | ADAM10 inhibition (ADAM10): inhibits
